In article PMC9359912, “Pathogenic bacteria remodel central metabolic enzyme to build a cyclopropanol warhead” (Nature Chemistry, 2022):

Target: T1, BurG (Burkholderia thailandensis, UniProt Q2T3G7)
T1 construct: gene ilvC-2

Q: Which “X-ray co-crystal structure, 2.05 Å” value does the source give for `NC(=O)C1=CN([C@@H]2O[C@H](COP(=O)(O)OP(=O)(O)OC[C@H]3O[C@@H](n4cnc5c(N)ncnc54)[C@H](O)[C@@H]3O)[C@@H](O)[C@H]2O)C=CC1` [NADH] here?
A: The value was “complexed between the two magnesium atoms and NADH in the active site”.
